Source: US20080045537A1, “Chemical Compounds” (priority 2004, published 2008)
Like-named read-outs stand apart in the source and are kept apart here.

Experiments:
T-tropic HIV = settings: patients that are dual tropic or have only the T-tropic form of the virus; cited from earlier work
[1] = tested on: HIV-1 gp160 (from the HXB2 HIV strain); assay: Cell/cell fusion assay (HEK-293 expressing HIV-1 tat, rev, gp160 with HOS hCXCR4/hCCR5/hCD4/pHIV-LTR-luciferase cells); assay type: cell-based; settings: Human immunodeficiency virus 1, HXB2, HEK293, 24 h, read-out: Fusion assay (pIC50), luciferase readout after 24 h (converted)
Procedure, shortened: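 HEK-293 cells BacMam-transduced (MOI 10 each, 2 mM butyric acid, 24 h) to express HIV-1 tat, rev and HXB2 gp160 were mixed with HOS hCXCR4/hCCR5/hCD4 LTR-luciferase cells, 20,000 each per well, on DMSO compound spots in 2% FCS media. Fusion read as luciferase luminescence after 24 h at 37 °C.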

human CXCR4 = target: T1, human CXCR4 (Homo sapiens, UniProt P61073); assay: Functional FLIPR assay (block of SDF-1 alpha induced [Ca2+]i change); assay type: cell-based; settings: HEK-293 cells with human CXCR4 BacMam and Gqi5 BacMam; antagonism of SDF-1 alpha; read-out: Functional assay (pIC50) (converted)
T1 construct: expressed in transfected cells; host or cells: HEK-293 cells (stably expressing human macrophage scavenging receptor) transduced with human CXCR4 BacMam and Gqi5 BacMam baculoviruses
Procedure, shortened: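 HEK-293 cells transduced with human CXCR4 (MOI=25) and Gqi5 (MOI=12.5) BacMam were expressed 24 h at 37° C, then loaded 1 h with calcium dye in probenecid medium. Block of the SDF-1 alpha (EC80) [Ca2+]i response was read on FLIPR; IC50 converted to pKb via the Leff and Dougall equation.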

[2] = tested on: HIV-1 IIIB (T-tropic, CXCR4 utilizing); assay: HOS HIV-1 infectivity assay; assay type: cell-based
Procedure, shortened: (§1)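 Luminescence served as read-out: Steady-Glo luciferase for infected wells, CellTiter-Glo for virus-free wells assessing cytotoxicity. Reporter HOS cells (hCXCR4/hCCR5/hCD4, LTR-luciferase) were preincubated with compound for 1 h, infected with PBL-propagated virus, and cultured 96 h at 37 °C.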

[3] = Compound cytotoxicity in the absence of virus addition (CellTiter-Glo); assay type: cell-based; settings: human; non-infected HOS cultures; read-out: Cytotox (pIC50) (converted)
Procedure, shortened: as §1

[4] = Human immunodeficiency virus 1, IIIB, as determined by the infectivity assay, strain not stated in Table 2, read-out: Activity Level
[5] = Human immunodeficiency virus 1, HIV-1 IIIB, HOS cells, 96 h, luciferase readout, read-out: HOS (3B)

T1 sequence (P61073 whole entry): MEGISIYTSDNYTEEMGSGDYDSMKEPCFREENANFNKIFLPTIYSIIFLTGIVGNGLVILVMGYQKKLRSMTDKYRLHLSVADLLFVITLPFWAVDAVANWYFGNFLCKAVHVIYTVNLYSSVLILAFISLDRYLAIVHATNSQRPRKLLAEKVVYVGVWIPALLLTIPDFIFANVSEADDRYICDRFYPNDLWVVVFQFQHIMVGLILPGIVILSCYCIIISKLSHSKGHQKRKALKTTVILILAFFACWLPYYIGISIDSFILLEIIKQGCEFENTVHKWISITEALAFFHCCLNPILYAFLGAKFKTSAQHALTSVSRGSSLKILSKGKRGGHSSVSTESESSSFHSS

c1cc(CN2CCCNCCNCCCNCC2)ccc1CN1CCCNCCNCCCNCC1 [AMD-3100]
T-tropic HIV viral load (T-tropic HIV): significantly reduce T-tropic HIV viral load

CN(Cc1nc2c(CNCCc3c[nH]cn3)cccc2[nH]1)C1CCCc2cccnc21 (centres unmarked) [Example 32, N-{[4-({[2-(1H-Imidazol-4-yl)ethyl]amino}methyl)-1H-benzimidazol-2-yl]methyl}-N-methyl-5,6,7,8-tetrahydro-8-quinolinamine]
IC50 [1]: 85.1 nM | IC50 (human CXCR4): 66.1 nM | IC50 [2, 4]: < 100 nM | IC50 [2, 5]: 45 nM | IC50 at 96 h [3]: 7590 nM

CN(Cc1nc2c(CN3CCNCC3)cccc2[nH]1)C1CCCc2cccnc21 (centres unmarked) [Example 33, N-Methyl-N-{[4-(1-piperazinylmethyl)-1H-benzimidazol-2-yl]methyl}-5,6,7,8-tetrahydro-8-quinolinamine]
IC50 [1]: 162 nM | IC50 (human CXCR4): 15.1 nM | IC50 [2, 4]: < 100 nM | IC50 [2, 5]: 13 nM | IC50 at 96 h [3]: > 100000 nM

CN(Cc1nc2c(N3CCNCC3)cccc2[nH]1)C1CCCc2cccnc21 (centres unmarked) [Example 34, N-methyl-N-{[4-(1-piperazinyl)-1H-benzimidazol-2-yl]-methyl}-5,6,7,8-tetrahydro-8-quinolinamine]
IC50 [1]: 5.5 nM | IC50 (human CXCR4): 8.13 nM | IC50 [2, 5]: 6.2 nM | IC50 at 96 h [3]: > 100000 nM

CN1CCN(c2cccc3nc(CN(C)C4CCCc5cccnc54)[nH]c23)CC1 (centres unmarked) [Example 35, N-methyl-N-{[4-(4-methyl-1-piperazinyl)-1H-benzimidazol-2-yl]methyl}-5,6,7,8-tetrahydro-8-quinolinamine]
IC50 [1]: 0.389 nM | IC50 (human CXCR4): 5.89 nM | IC50 [2, 4]: < 100 nM | IC50 [2, 5]: 1.6 nM | IC50 at 96 h [3]: > 100000 nM
